Tests used:
[1] = system: isolated rat thoracic aorta; assay: Vascular relaxing effect in potassium chloride (20 mM KCl) contracted isolated rat thoracic aorta; parameters: species or system rat (male SPRD); settings: for IC50: Rattus norvegicus, 20 mM KCl contracted strips, 37° C., read-out: IC50 (vascular relaxation in isolated rat thoracic aorta)
Protocol: 1. Measurement of Vascular Relaxing Effect in Potassium Chloride Contracted Isolated rat Thoracic Aorta
Experiments were performed in thoracic aortas obtained from male SPRD rats weighing 250 to 300 g. Thoracic aortas excised from rats killed by decapitation and ensanguination were cleaned of fat and connective tissue, then were immediately placed in carbogenized TYRODE solution. The composition of the normal TYRODE solution was the following (in mM): NaCl 114.7, KCl 3.7, CaCl2 3.6, MgCl2 0.49, NaHCO3 19.9, NaH2 PO4 0.32, glucose 5.1.
Two mm wide and 20 to 25 mm long strips were cut from the aortas along a helical line at 45° angle. Aortic strips were mounted vertically between two cotton threads in 10 ml organ chambers, the lower threads were attached to the organ chambers and the upper threads were connected to isometric force transducers. The strips were incubated under 1 g resting tension at 37° C. for 120 minutes, then resting vascular tone was recorded. Then the strips were contracted with a TYRODE solution containing 20 mM KCl. The composition of the high potassium TYRODE solution was the following (in mM): NaCl 94.7, KCl 20, CaCl2 3.6, MgCl2 0.49, NaHCO3 19.9, NaH2 PO4 0.32, glucose 5.1.
When stable vascular tone developed, increasing doses of the test substance were added to the organ bath. The effects of each test substance were measured at least in 3 tissue preparations obtained from different animals. Decreases in vascular tension caused by the test substances were expressed as percentage changes and IC50 for each tissue preparation was determined by sigmoid (in few casses linear) curve fitting.
For comparison, cromakalim i.e. (±)-trans-3,4-dihydro-3-hydroxy-2,2-dimethyl-4-(2-oxo-1-pyrrolidinyl)-2H-1-benzopyrane-6-carbonitrile was used.

[2] = system: isolated guinea-pig papillary muscle; assay: Effective refractory period (ERP) prolonging effect in isolated guinea-pig right ventricular papillary muscle, in vitro; parameters: species or system guinea-pig (male); settings: for ERP change at 10^-4 M / ERP change at 10^-5 M: 30 minutes incubation, mean of at least four preparations
Source text: 2. Measurement of Effective Refracter Period in Guinea-pig Right Ventricular Papillary Muscle, in Vitro.
Effective refracter period (ERP) is regarded to be the shortest time interval between two identical electrical stimuli when both can evoke a twitch in the papillary muscle. A second stimulus applied earlier than the ERP is not effective. Compounds prolonging ERP can have antiarrhythmic effect. This method is useful primarily for testing antiarrhythmic agents belonging to class III according to the Vaughan Williams classification /Bexton, R. S. and Camm. A., J. Pharmacol. Ther., 17, 315 (1982)/.
Experiments were performed in a Schuler-type organ bath system having 4 channels. Male guinea-pigs weighing 450 to 750 g were killed by a blow on the head and ensanguinated. The heart was rapidly excised and papillary muscles of appropriate size (lower than 1 mm in diameter) were dissected from the right ventricle. The preparations were vertically mounted in 20 ml organ chambers containing Krebs solution bubbled with carbogen (consisting of 95% of O2 and 5% of CO2) and maintained at 35° C. The upper end of the muscles was connected with cotton threads to force-displacement transducers coupled to a recorder for measuring isometric tension via DC-bridge amplifiers. The lower end of the papillary muscles was pinned to the organ chamber with a silver hook that was also used as a stimulating electrode. The other electrode was immersed into the organ bath and had no direct contact with the preparation. The composition of the Krebs solution was the following (in mm): NaCl 118, KCl 4.8, NaHCO3 27.2, glucose 11.1, MgSO4 1.2, KH2 PO4 1, CaCl2 2.6, pH=7.4.
The preparations were equilibrated for 120 minutes under a resting tension of 1 g. During equilibration they were electrically stimulated at a rate of 2 Hz with 1 msec rectangular pulses that were above the diastolic threshold voltage by 10%. ERP was determined using a standard extrastimulus technique. Extrastimuli (S2) were interjected between the normal stimuli (S1) in such a way that the S1 -S2 interval was initially below the refracter period of the tissue. The S1 -S2 interval was then widened by increments of 1 msec until the extrastimulus (S2) evoked twitch of the papillary muscle. The force of the twitch caused by S2 is larger than those caused by normal (S1) stimuli (postextrasystolic potentiation). The equipment measured the shortest S1 -S2 interval at which the extrastimulus evoked a twitch that was larger than the force of control twitches by 25%. This interval is equivalent with the ERP.
The experimental protocol was as follows:
Two control ERP measurements were performed 20 minutes apart, then appropriate amount of the test substance was added to produce 10^-4 M concentration in the bathing solution. After 30 minutes incubation with the test substance, two ERP measurements were performed 30 minutes apart.
When the test substance increased ERP at 10^-4 M by 40 msec or more, its effect on ERP was tested also at 10^-5 M.
The effect of the test substances was characterized by the difference between the first treated and the second control measurements. Individual data obtained from four different preparations, at least, were averaged. The reference substance used was sotalol i.e. N-[4-/1-hydroxy-2-(1-methylethylamino)ethyl/plenyl]methane sulfonamide.

| IC50 [1] [µM] | SMILES | vascular relaxation of isolated rat thoracic aorta (in words) [1] | ERP prolongation (in words) [2] | ERP change at 10^-4 M [2] [msec] | ERP change at 10^-5 M [2] [msec] |
| --- | --- | --- | --- | --- | --- |
| 0.071 | CN(C)CCCOc1ccccc1-c1nnc(-n2nc(N(C)C)nc2N)s1 [Example 29, 2-(5-Amino-3-dimethylamino-1H-1,2,4-triazole-1-yl)-5-/ 2-(3-dimethylaminopropoxy)phenyl/-1,3,4-thiadiazole] | relaxed isolated rat thoracic aorta more effectively than the K^+ channel opener and Ca^2+ channel blocker reference substances |  |  |  |
| 0.068 | CC(C)Sc1nc(N)n(-c2nnc(-c3ccccc3OCCCN(C)C)s2)n1 [Example 30, 2-/5-Amino-3-(2-methylethylthio)-1H-1,2,4-triazole-1-yl/-5-/ 2-(3-dimethylaminopropoxy)phenyl/-1,3,4-thiadiazole] | relaxed isolated rat thoracic aorta more effectively than the K^+ channel opener and Ca^2+ channel blocker reference substances |  |  |  |
|  | CN(C)CCCOc1ccccc1-c1nnc(-n2nc(N3CCCCC3)nc2N)s1 [Example 32, 2-(5-Amino-3-piperidino-1H-1,2,4-triazole-1-yl)-5-/ 2-(3-dimethylaminopropoxy)phenyl/-1,3,4-thiadiazole] |  | remarkable also at 10^-5 M | 155 | 158 |
|  | CCN(CC)CCOc1ccc(-c2nnc(-n3nc(SC)nc3N)s2)cc1 [Example 36, 2-(5-Amino-3-methylthio-1H-1,2,4-triazole-1-yl)-5-/ 4-(2-diethylaminoethoxy)phenyl/-1,3,4-thiadiazole] |  |  | 53 | 15 |
|  | CSc1nc(N)n(-c2nnc(-c3ccccc3OCCCN3CCCC3)s2)n1 [Example 43, 2-(5-Amino-3-methylthio-1H-1,2,4-triazole-1-yl)-5-/ 2-(3-pyrrolidinopropoxy)phenyl/-1,3,4-thiadiazole] |  |  | 66 | 34 |
|  | CN(C)CCCOc1ccc(-c2nnc(-n3nc(N4CCN(C)CC4)nc3N)s2)cc1 [Example 47, 2-/5-Amino-3-(4-methylpiperazine-1-yl)-1H-1,2,4-triazole-1-yl/-5-/ 4-(3-dimethylaminopropoxy)phenyl/-1,3,4-thiadiazole] |  |  | 123 | 2 |
| 0.17 | C=CCN(CC=C)c1nc(N)n(-c2nnc(-c3ccccc3OCCCN(C)C)s2)n1 [Example 49, 2-(5-Amino-3-diallylamino-1H-1,2,4-triazole-1-yl)-5-/ 2-(3-dimethylaminopropoxy)phenyl/-1,3,4-thiadiazole] |  |  |  |  |
| 0.13 | COc1ccc(CCN(C)CCCOc2ccccc2-c2nnc(-n3nc(N4CCCCC4)nc3N)s2)cc1OC [Example 99, 2-(5-Amino-3-piperidino-1H-1,2,4-triazole-1-yl)-5-{2-[3-methyl-3-/ 2-(3,4-dimethoxyphenylethyl)amino/-propoxy]phenyl}-1,3,4-thiadiazole] |  |  |  |  |
| 0.075 | COc1ccc(CCN(C)CCCOc2ccccc2-c2nnc(-n3nc(SC(C)C)nc3N)s2)cc1OC [Example 101, 2-/5-Amino-3-(1-methylethylthio)-1H-1,2,4-triazole-1-yl/-5-{2-[3-methyl-3-/2-(3,4-dimethoxyphenylethyl)amino/propoxy]-phenyl}-1,3,4-thiadiazole] | relaxed isolated rat thoracic aorta more effectively than the K^+ channel opener and Ca^2+ channel blocker reference substances |  |  |  |
|  | CC(C)NCC(O)c1ccc(NS(C)(=O)=O)cc1 (centres unmarked) [sotalol, N-[4-/1-hydroxy-2-(1-methylethylamino)ethyl/plenyl]methane sulfonamide, reference compound] |  |  | 47 | 26 |

| SMILES | IC50 [1] [µM] | vascular relaxation of isolated rat thoracic aorta (in words) [1] | ERP prolongation (in words) [2] | ERP change at 10^-4 M [2] [msec] | ERP change at 10^-5 M [2] [msec] |
| --- | --- | --- | --- | --- | --- |
| CC1(C)Oc2ccc(C#N)cc2[C@@H](N2CCCC2=O)[C@@H]1O (racemic) [cromakalim, (±)-trans-3,4-dihydro-3-hydroxy-2,2-dimethyl-4-(2-oxo-1-pyrrolidinyl)-2H-1-benzopyrane-6-carbonitrile, reference compound] | 0.13 |  |  |  |  |

— patent US6191152A, “2-(1,2,4-triazole-1-yl)-1,3,4-thiadiazole derivatives having an effect on the C.N.S. and the heart” (EGIS Gyogyszergyar Rt., priority 1997, dated 2001)
